This test deals with reactive microglia. The experiment in a line: PET/CT imaging of neuroinflammation in 5×FAD transgenic mice vs wild type. Format: in vivo, mouse. Conditions: 3.75 months of age. The source says:
To further evaluate the ability of ^18F-OP-801 to image neuroinflammation in neurogenerative diseases, the 5×FAD transgenic mouse model was used. 5×FAD transgenic mice (B6SJL-Tg (APPSwFlLon,PSEN1*M146L*L286V)6799Vas) expressed human APP and PSEN1 transgenes developing amyloid plaque within a few months after birth and previous studies with TSPO PET radiotracers have only been able to detect neuroinflammation around 6 months (˜26 weeks) of age with a high TPSO affinity radiotracer, ^18F-GE180. 5×FAD female mice and age matched controls were used at 3.75 months of age to evaluate ^18F-OP-801 compared to the TPSO radiotracer, ^18F-GE180. ^18F-OP-801 ([…]) was injected as an IV bolus into wild type (n=7) and 5×FAD females (n=12) at 3.75 months of age. ^18F-GE180 (150-250 μCi) was administered to the 5×FAD transgenic (n=5) and wild type (n=4) female mice at 3.75 months of age. Static 10-minute PET/CT images were acquired at 50-60 minutes post-injection.

Turning to `CCN(CC)C(=O)[C@H]1CCCc2c1c1c(OC)cccc1n2CC[18F]` [^18F-GE180], the “PET signal in 5×FAD mice compared to wild type mice” value (50-60 minutes post-injection) is reported as “minimal PET signal differences”. Besides, for the setting “5xFAD mice”, the “TG-to-WT ratio, Cortex” value was found to be 1.21; the “TG-to-WT ratio, Hippocampus” value amounted to 1.24; the “TG-to-WT ratio, Whole Brain” value amounted to 1.21.
